# Measurements from publication PMC5107132 (European journal of pharmacology, 2016).
# System: Wistar rats
# Experiment: Spontaneous locomotor activity
# Assay type: in vivo, rat
# Settings: 15 mg/kg i.p., 45 min
smiles,measurement,value
"C#Cc1ccc2c(c1)C(c1ccccc1F)=N[C@H](C)c1c(C(=O)NC)ncn1-2 [MP-III-022, (R)-8-Ethynyl-6-(2-fluorophenyl)-N,4-dimethyl-4H-benzo[f]imidazo[1,5-a][1,4]diazepine-3-carboxamide]","Spontaneous locomotor activity, total distance traveled",slight hyperlocomotion
